The source of these data is paper PMC5706701, “Development of a homogenous high-throughput assay for inositol hexakisphosphate kinase 1 activity” (PLoS ONE, 2017).

The assay has as its target T1, Human IP6K1 (Homo sapiens, UniProt Q92551).
T1 construct: GST (N, cleaved yes); made in house; host or cells: C43 E. coli, pGEX-6P-2
The assay is described as follows: IP6K1 high-throughput screen of the Sigma LOPAC (ADP-Glo Max, single point).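 Further: final compound concentration 10µM in 5% DMSO.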 Type of assay: biochemical. On the technique in general: ADP-Glo first removes unused ATP, then detects ADP through luciferase.

[1] abbreviates: Sigma LOPAC single-point screen, ADP-Glo Max raw signal per well.
[2] abbreviates: Sigma LOPAC single-point screen, Z-score from plate average and StDev.
Setting [3] is: LOPAC single-point screen, ADP-Glo Max raw signal per well.
Where [4] appears, read: LOPAC single-point screen, Z-score from raw signal with plate average and StDev.
The mark [5] stands for this setting: LOPAC single-point screen, ADP-Glo Max luminescence raw signal per well.
[6] abbreviates: LOPAC single-point screen, Z-score relative to plate average and StDev.
Setting [7] is: LOPAC single-point screen, Z-score against plate average and StDev.

Structures can show the parent of a compound that is named as a salt.

T1 sequence (Q92551 whole entry): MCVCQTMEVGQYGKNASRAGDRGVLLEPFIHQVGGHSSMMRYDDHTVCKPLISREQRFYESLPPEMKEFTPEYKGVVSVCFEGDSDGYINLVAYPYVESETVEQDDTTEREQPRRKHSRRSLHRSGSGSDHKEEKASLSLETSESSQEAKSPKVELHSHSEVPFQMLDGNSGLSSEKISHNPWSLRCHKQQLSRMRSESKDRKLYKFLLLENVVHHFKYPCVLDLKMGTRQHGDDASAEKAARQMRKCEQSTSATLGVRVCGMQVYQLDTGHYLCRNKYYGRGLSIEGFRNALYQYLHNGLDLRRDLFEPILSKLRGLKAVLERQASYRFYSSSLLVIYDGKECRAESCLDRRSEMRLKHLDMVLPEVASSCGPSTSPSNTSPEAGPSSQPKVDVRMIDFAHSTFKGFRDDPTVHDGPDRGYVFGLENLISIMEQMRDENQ

As to `c1ccc2c(c1)[I+]c1ccccc1-2` [Diphenyleneiodonium chloride], under setting [1], the “Raw Signal” value is reported as 59663. The same compound showed a Z-score under setting [2] of 0.9131.
Regarding `CSC(=N)N.CSC(=N)N.O=S(=O)(O)O` [S-Methylisothiourea hemisulfate], the “Raw Signal” value under setting [3] came to 51759. Under setting [4], the Z-score is reported as -0.4427.
As to `CCCNC[C@H](O)COc1ccccc1C(=O)CCc1ccccc1.Cl` [(S)-(-)-propafenone hydrochloride], the “Raw Signal” value under setting [5] is on record as 52495. Also, the Z-score under setting [6] is given as -0.6856.
`C[C@@H]1O[C@H](C[N+](C)(C)C)C[C@H]1O.[Cl-]` (racemic) [(±)-Muscarine chloride]: the “Raw Signal” value under setting [3] was 54548. The Z-score under setting [7] stood at 0.02596.
For `CC(N)(Cc1ccc(O)c(O)c1)C(=O)O` (racemic), the “Raw Signal” value under setting [5] amounted to 41540. In addition, under setting [6], the Z-score is recorded as -2.16.
Take `CN1CCN(c2ccc3ccccc3n2)CC1.O=C(O)/C=C\C(=O)O.O=C(O)/C=C\C(=O)O` [Quipazine, N-methyl-, dimaleate]: the “Raw Signal” value under setting [5] is 51627. For the same compound, the Z-score under setting [6] was -0.8542.
On to `CC(C)C[C@H](NP(=O)([O-])O[C@H]1O[C@H](C)[C@@H](O)[C@H](O)[C@@H]1O)C(=O)N[C@@H](Cc1c[nH]c2ccccc12)C(=O)[O-].[Na+].[Na+]` [Phosphoramidon disodium], for which, under setting [3], the “Raw Signal” value is given as 56521. This compound displayed a Z-score under setting [7] of 0.0966.
With `Cc1cccc(C(=O)NCN2CCN(c3ccccc3C#N)CC2)c1.O=C(O)/C=C\C(=O)O` [PD 168,077 maleate], the “Raw Signal” value under setting [5] was 64247. In addition, for the setting “LOPAC single-point screen, Z-score from plate average and StDev”, the Z-score stood at 1.598.
For the compound `CN(C)c1cc2c(Nc3ccc4c(cnn4Cc4ccccc4)c3)ncnc2cn1` [GW2974], the “Raw Signal” value under setting [3] stood at 53289. The compound further came in with a Z-score under setting [4] of -0.3814.
`Cc1nc(N=Nc2ccc(S(=O)(=O)O)cc2S(=O)(=O)O)c(COP(=O)(O)O)c(C=O)c1O` [PPADS]: the “Raw Signal” value under setting [3] is reported as 55598. This compound also came in with a Z-score under setting [7] of -0.08273.
With `CN(Cc1cnc2nc(N)nc(N)c2n1)c1ccc(C(=O)N[C@@H](CCC(=O)O)C(=O)O)cc1` [(-)Amethopterin], the “Raw Signal” value under setting [1] was determined as 61362. Moreover, the Z-score under setting [2] turned out to be 0.6074.
Regarding (+)-Cyclazocine, the “Raw Signal” value under setting [3] was determined as 53235. This compound returned a Z-score under setting [4] of -0.3924.
As to `COc1ccc(CCCOC(Cn2ccnc2)c2ccc(OC)cc2)cc1` (centres unmarked) [SKF 96365], the “Raw Signal” value under setting [3] was found to be 56420. Further, under setting [7], the Z-score turned out to be 0.07697.
As for `COC(=O)[C@@H](N)Cc1ccc(O)c(O)c1.Cl`, under setting [5], the “Raw Signal” value is on record as 38457. The compound further returned a Z-score under setting [6] of -3.394.
Consider `N[C@H](C(=O)O)[C@H]1C[C@@H]1C(=O)O`, for which the “Raw Signal” value under setting [3] is 55555. This compound displayed a Z-score under setting [7] of 0.07879.
Take `COc1ccc(CCN(C)CCc2ccc(OC)c(OC)c2)cc1OC.Cl` [YS-035 hydrochloride]: the “Raw Signal” value under setting [3] is given as 55463. For the same compound, the Z-score under setting [4] was -0.109.
As for `NC[C@H](O)c1ccc(O)c(O)c1.O=C(O)C(O)C(O)C(=O)O` [L(-)-Norepinephrine bitartrate], the “Raw Signal” value under setting [5] came to 29897. Further, the Z-score under setting [6] is -4.934.
`O=C1CCC(N2C(=O)c3ccccc3C2=O)C(=O)N1` (racemic) [(±)-Thalidomide]: the “Raw Signal” value under setting [3] amounted to 54848. The Z-score under setting [4] is -0.2284.
Consider `Cc1scc2c1N(C(=O)CN1CCN(C)CC1)c1ccccc1NC2=O` [Telenzepine dihydrochloride], for which the “Raw Signal” value under setting [1] is 58050. Under setting [2], the Z-score is 0.3937.
Consider `CCCN1CCC[C@H](c2cccc(O)c2)C1.Cl` [R(+)-3PPP hydrochloride], for which the “Raw Signal” value under setting [5] stood at 50646. Under setting [6], this compound displayed a Z-score of -1.045.
With `COc1ccc2[nH]cc(CCNC(C)=O)c2c1` [Melatonin], the “Raw Signal” value under setting [3] is given as 53452. In addition, under setting [4], the Z-score is -0.1582.
For the compound `O=C(CCCN1CCC(O)(c2ccc(Cl)cc2)CC1)c1ccc(F)cc1` [Haloperidol], under setting [5], the “Raw Signal” value was found to be 51923. Besides, under setting [6], the Z-score is recorded as -0.6588.
